Measurements: patent publication US8440615B2, “Pharmaceutical and/or cosmetic composition containing active-principle activators of aconitase” (Societe d'Extraction des Principes Actifs (Vincience), priority 2007, dated 2013)
Residues, ends and D or L forms follow the SMILES beside them.

Assays:
dermal fibroblasts = assay: Intracellular ATP synthesis, ATP Bioluminescence Assay Kit HS II; format: cell-based; conditions: 1% solution of a 50-ppm peptide solution
Description: The aim of this study was to determine the effect of the SEQ ID No. 1 peptide on mitochondrial activity. It is the ATP produced by the mitochondria that serves as a biochemical marker for this activity.
Protocol: This study was conducted using an ATP Bioluminescence Assay Kit HS II (Roche Applied Science). Dermal fibroblasts were treated with a 1% solution of a 50-ppm solution containing the SEQ ID No. 1 peptide, representative of the peptide family according to the invention, for a period of 1 to 3 hours. At the end of the incubation time, the tubes were emptied of their medium and rinsed with 2 ml of cold PBS before adding 250 μl of a lysing buffer provided in the kit. The cells of each tube were then scraped up and collected in 14-ml tubes. Each tube was rinsed with 2×500 μl of cold PBS, and the whole was collected again in the respective tubes. […] The ATP measurement was performed on these samples: 50 μl of this dilution was placed in a Luma cuvette and 50 μl of […] was added. After 10 seconds, the luminescence reading was begun. The values were standardized relative to the quantity of proteins for each sample. The measurements were made using the Biocounter M2010A Luma®/3M equipment.

aconitase = assay: Total (cytoplasmic and mitochondrial) enzymatic activity of aconitase in fibroblasts, Bioxytech Aconitase-340 kit; format: cell-based, human
Description: (§1) The aim of this study was to determine the effect of the SEQ ID No. 2 peptide on the enzymatic activity of aconitase. For this, the total enzymatic activity (cytoplasmic and mitochondrial) and the mitochondrial enzymatic activity of aconitase were measured.
Protocol: Normal human fibroblasts were treated with a 1% solution of a 50-ppm SEQ ID No. 2 peptide representative of the peptide family according to the invention, for 48 hr, and were then subjected to UVB radiation of 100 mJ/cm^2. After irradiation, the cells were treated under the same conditions for another 24 hr. Negative controls were achieved under the same conditions, but in the absence of the SEQ ID No. 2 peptide.
To evaluate the enzymatic activity of aconitase, the fibroblasts were then collected and centrifuged in PBS buffer. […]
(§2) The measurement of the enzymatic activity of aconitase was made using the Oxis Bioxytech Aconitase-340 assay kit (Oxis International), according to the following principle: aconitase causes isomerization of the citrate to isocitrate. […] It is the formation of NADPH that is quantified spectrophotometrically at 340 nm. Under the experimental conditions chosen, the rate of NADPH formation is proportional to the quantity of aconitase. The analysis of the kinetics of NADPH appearance enables the concentration of aconitase in the sample to be calculated (in mU/ml)

mitochondrial aconitase = biological target: T1, mitochondrial aconitase (Homo sapiens, UniProt Q99798); assay: Enzymatic activity of mitochondrial aconitase in the mitochondrial fraction of fibroblasts, Bioxytech Aconitase-340 kit; format: cell-based; conditions: concentration printed as 0.05 ppm
T1 construct: endogenous in cells; host or cells: normal human fibroblasts, mitochondrial fraction (10,000 g pellet)
T1 sequence (Q99798 28-780): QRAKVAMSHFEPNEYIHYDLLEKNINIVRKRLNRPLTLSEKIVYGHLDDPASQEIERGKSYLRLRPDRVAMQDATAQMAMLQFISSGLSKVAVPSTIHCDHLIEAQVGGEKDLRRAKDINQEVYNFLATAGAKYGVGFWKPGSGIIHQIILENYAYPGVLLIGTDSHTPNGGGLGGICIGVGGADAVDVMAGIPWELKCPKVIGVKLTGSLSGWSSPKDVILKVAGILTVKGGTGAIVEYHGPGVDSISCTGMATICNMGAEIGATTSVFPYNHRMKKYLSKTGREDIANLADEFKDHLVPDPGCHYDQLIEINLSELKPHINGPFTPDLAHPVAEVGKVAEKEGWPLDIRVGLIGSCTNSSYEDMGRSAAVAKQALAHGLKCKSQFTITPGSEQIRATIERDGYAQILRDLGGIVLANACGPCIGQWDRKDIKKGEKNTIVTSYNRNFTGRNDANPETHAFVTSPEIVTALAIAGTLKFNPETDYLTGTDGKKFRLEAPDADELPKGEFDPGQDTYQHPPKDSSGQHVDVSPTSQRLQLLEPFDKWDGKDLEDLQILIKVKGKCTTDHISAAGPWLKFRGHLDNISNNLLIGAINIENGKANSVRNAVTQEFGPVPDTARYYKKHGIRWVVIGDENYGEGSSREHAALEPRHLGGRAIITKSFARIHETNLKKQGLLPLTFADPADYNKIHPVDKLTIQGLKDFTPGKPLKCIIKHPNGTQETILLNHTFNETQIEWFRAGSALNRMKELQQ
Description: as §1
[…] After irradiation, the cells were treated under the same conditions for another 24 hr. Negative controls were achieved under the same conditions, but in the absence of the SEQ ID No. 2 peptide.
To evaluate the enzymatic activity of aconitase, the fibroblasts were then collected and centrifuged in PBS buffer. A portion of the cells was then processed to measure total enzymatic activity; another portion was used to isolate the mitochondrial fraction according to the following protocol. […]
as §2

human dermal fibroblasts = format: cell-based; conditions: 48 h, 0.5 ppm
Description: The aim of this study was to determine the protective effect of the SEQ ID No. 2 peptide with respect to dermal fibroblasts subjected to an oxidative stress caused by oxygenated water (H2O2) in a concentration of 4 mM or 5 mM. For this, cellular viability tests were performed using the MTT technique. Protocol: Human dermal fibroblasts were treated with a 1% solution of a 50-ppm SEQ ID No. 2 peptide for 24 hours, subjected to an oxidative stress caused by 4 mM or 5 mM of H2O2 for 30 minutes, and then cultivated for another 24 hours in the presence of the same concentration of SEQ ID No. 2 peptide. Controls treated with neither the peptide nor H2O2 and controls treated with the peptide alone were achieved under the same conditions. At the end of the experiment, the cells were incubated in a solution containing 0.1 mg/ml of MTT (3-[4,5-dimethylthiazole-2-yl]-2,5-diphenyltetrazolium bromide) according to the protocol described in example 3

[1] = test system: primary human fibroblasts; assay: Comet test (single-cell gel electrophoresis), DNA damage after UVB irradiation; format: cell-based; conditions: UVB 100 mJ/cm^2, 0.5 ppm peptide
Description: A study of the cytoprotective effect of SEQ ID No. 2 peptide was made by evaluating the damage caused at the DNA level. This study was done using the comet (or single-cell gel electrophoresis) test, a quick and sensitive micro-electrophoretic technique that enables breaks in the DNA to be visualized and quantified in individual cells.
Protocol: Primary human fibroblasts were seeded in […] dishes. When the cells reached 70% coalescence, they were treated with SEQ ID No. 2 peptide diluted to 1% (starting from a 50-ppm solution) for 24 hours. The cells were then subjected to UVB irradiation at 100 mJ/cm^2, then cultivated in the presence of the peptide for another 24 hours. The dishes not treated with the peptide served as controls. A cellular suspension of 100,000 cells/ml was then achieved, 500 μl were removed, inserted into an agarose solution, and run between slide and cover glass. The cells were lysed in the cold. The DNA was then denatured with an alkaline buffer and subjected to a brief electrophoresis (250 mA for 30 minutes), and stained with propidium iodate. The slides were then observed under a fluorescence microscope. An altered cell sees its DNA stretch toward the anode in proportion to the number of breaks present in the DNA, and it forms a “comet”. The highly degraded DNA is found in the “tail” of the comet. An intact cell remains round, and its DNA is then packed into the area of the comet “head”.
The evaluation of DNA breaks was done using image-analyzer software that enables the percentage of DNA degradation to be determined, by means of a quantitative evaluation of the “tail moment”, a parameter defined as the product of the length of the comet by the percentage of DNA in its distal portion.

[2] = test system: normal human keratinocytes; assay: Ultrastructure of mitochondria by electron microscopy; format: cell-based; conditions: 1% solution of a 50-ppm mother-solution for 72 hours
Description: The aim of this study was to determine the action of the SEQ ID No. 2 peptide on mitochondria, by observing the ultrastructures with the electron microscope.
Protocol: Normal human keratinocytes were treated with a 1% solution of a 50-ppm mother-solution of SEQ ID No. 2 peptide for 72 hours. Negative controls were achieved under the same conditions, but in the absence of the said peptide.
The cells were then fixed using Karnovsky's fixative (20 ml of 16% paraformaldehyde/8 ml of 50% glutaraldehyde/25 ml of 0.2 M sodium phosphate buffer/25 ml of water) for 1 hr at ambient temperature, and then left overnight at 4° C. The culture media were scraped into the Karnovsky's fixative and then the cells were centrifuged for 5 minutes at 5000 rpm. The supernatant was isolated and the pellet resuspended in 1 ml of 0.1 M cacodylate. The samples were then kept at 4° C. until their processing for electron microscopy observation.

With “Ser-Cys-Ile-Asn-Thr (SCINT) [SEQ ID No. 1]” the “amount of intracellular ATP compared to the untreated cells” value (dermal fibroblasts; after 3 hours) was “clear increase” and the “increase in the amount of intracellular ATP compared to the untreated cells” value (dermal fibroblasts; after one hour) was 43%.
For “Ser-Cys-Ile-Asn-Ser (SCINS) [SEQ ID No. 5]”, the “total enzymatic activity of aconitase after UVB irradiation” value (aconitase; UVB 100 mJ/cm^2, peptide treatment before (48 hr) and after (24 hr) irradiation) was “enabled the observed reduction to be limited”.
In the case of `CC[C@H](C)[C@H](NC(=O)[C@H](CS)NC(=O)[C@@H](N)CO)C(=O)N[C@@H](CC(N)=O)C(=O)N[C@H](C(N)=O)[C@@H](C)O` [SEQ ID No. 2, Ser-Cys-Ile-Asn-Thr-NH2] (H-SCINT-NH2; N-terminus assumed), the “increase in total enzymatic activity of aconitase compared with untreated control cells” value (aconitase; not irradiated, 1% solution of a 50-ppm peptide, n=5) is reported as 56.3%, the “enzymatic activity of mitochondrial aconitase” value (mitochondrial aconitase) is reported as “strongly stimulates” and the “% viability” value (human dermal fibroblasts) is reported as 121.13%. For the same compound, the “reduction of "tail moment" (DNA damage)” value ([1]; versus UVB control) was 25%, the “Measurement of "tail moment"” value ([1]; UVB control 106,563) was 80,221 and the “% of "tail moment" relative to UV control” value ([1]; UVB control = 100) was 75%. For the same compound, the “ultrastructural characteristics of the organelles” value [2] was “ultrastructural characteristics suggesting an increase in metabolic activity”.
